Test results published in patent US20110237629A1, “AMINO ACID ESTER PRODRUGS AND THE USE THEREOF” (Bayer Schering Pharma Aktiengesellschaft, priority 2008, published 2011).
Counter-ions that a name gives are not always drawn.

Columns and labels:
[1] = Determination of the solubility (suspension shaken 24 h at room temperature, HPLC of supernatant); format: physicochemical; conditions: thermodynamic from solid
Procedure: The test substance is suspended in water or dilute hydrochloric acid (pH 4) or in 5% strength aqueous dextrose solution. This suspension is shaken at room temperature for 24 h. After ultracentrifugation at 224 000 g for 30 min, the supernatant is diluted with DMSO and analysed by HPLC. A two-point calibration plot of the test compound in DMSO is used for quantification.
Agilent 1100 with DAD (G1315A), quat. Pump (G1311A), autosampler CTC HTS PAL, degasser (G1322A) and column thermostat (G1316A); column: Phenomenex Gemini C18, 5 μm, 50 mm×2 mm; temperature: 40° C.; eluent A: water/phosphoric acid pH 2, eluent B: acetonitrile; flow rate: 0.7 ml/min; gradient: 0-0.5 min 85% A, 15% B; ramp 0.5-3 min 10% A, 90% B; 3-3.5 min 10% A, 90% B; ramp 3.5-4 min 85% A, 15% B; 4-5 min 85% A, 15% B.
Agilent 1100 with DAD (G1315A), quat. pump (G1311A), autosampler CTC HTS PAL, degasser (G1322A) and column thermostat (G1316A); column: VDSoptilab Kromasil 100 C18, 3.5 μm, 60 mm×2.1 mm; temperature: 30° C.; eluent A: water+5 ml of perchloric acid/liter, eluent B: acetonitrile; flow rate: 0.75 ml/min; gradient: 0-0.5 min 98% A, 2% B; ramp 0.5-4.5 min 10% A, 90% B; 4.5-6 min 10% A, 90% B; ramp 6.5-6.7 min 98% A, 2% B; 6.7-7.5 min 98% A, 2% B.
The solubilities of representative exemplary embodiments in dilute hydrochloric acid (pH 4) are shown in Table1: […]

[2] = i.v. pharmacokinetics in Wistar rats; format: in vivo; conditions: male Wistar rats, i.v. bolus, first measurement point
Procedure: On the day before administration of the substance, a catheter for obtaining blood is implanted in the jugular vein of the experimental animals (male Wistar rats, body weight 200-250 g) under Isofluran® anesthesia. On the day of the experiment, a defined dose of the test substance is administered as solution into the tail vein using a Hamilton® glass syringe (bolus administration, duration of administration <10 s). Blood samples (8-12 time points) are taken through the catheter sequentially over the course of 24 h after administration of the substance. Plasma is obtained by centrifuging the samples in heparinized tubes. Acetonitrile is added to a defined plasma volume per time point to precipitate proteins. After centrifugation, test substance and, where appropriate, known cleavage products of the test substance in the supernatant are determined quantitatively using a suitable LC/MS-MS method. […] Only the active ingredient (example 8A) was detectable up to the 8-hour time point too.

[3] = Stability in buffer at various pH values; format: physicochemical
Procedure: 0.3 mg of the test substance is weighed into a 2 ml HPLC vial and 0.5 ml of acetonitrile or acetonitrile/DMSO (9:1) is added. The substance is dissolved by putting the sample vessel in an ultrasonic bath for about 10 seconds. Then 0.5 ml of the respective buffer solution is added, and the sample is again treated in the ultrasonic bath.
(Buffer) solutions employed:
pH 4: 1 liter of Millipore water is adjusted to pH 4.0 with 1 N hydrochloric acid;
pH 5: 0.096 mol of citric acid and 0.2 mol of sodium hydroxide ad 1 liter of water;
pH 7.4: 90.0 g of sodium chloride, 13.61 g of potassium dihydrogen phosphate and 83.35 g of 1 N sodium hydroxide solution are made up to 1 liter with water; this solution is then further diluted 1:10 with Millipore water.
pH 8: 0.013 mol of borax and 0.021 mol of hydrochloric acid ad 1 liter of water.
5 μl portions of the test solution are analyzed by HPLC for their content of unchanged test substance, and of basic mother substance of the formula (A) formed, every hour over a period of 24 hours at 37° C. The percentage areas of the appropriate peaks are used for quantification.
HPLC method for example 1:
(§1) Agilent 1100 with DAD (G1315B), binary pump (G1312A), autosampler (G1329A), column oven (G1316A), thermostat (G1330B); column: Kromasil 100 C18, 125 mm×4 mm, 5 μm; column temperature: 30° C.; eluent A: water+5 ml perchloric acid/liter, eluent B: acetonitrile; gradient: 0 min 90% A→2.0 min 70% A→18.0 min 70% A 20.0 min 10% A→21.0 min 10% A→23.0 min 90% A→26.0 min 90% A; flow rate: 2.0 ml/min;
HPLC method for example 3:
as §1, with “(G1314A),” for “(G1315B),”, “(G1330A);” for “(G1330B);”, “64%” for “70%”, “64% A→20.0” for “70% A 20.0”, “ml/min UV detection: 294 nm.” for “ml/min;”
HPLC method for example 11:
as §1, with “ml of” for “ml”, “64%” for “70%”, “64% A→20.0” for “70% A 20.0”, “ml/min; UV detection: 294 nm.” for “ml/min;”
HPLC method for example 14:
Agilent 1100 with DAD (G1315B), binary pump (G1312A), autosampler (G1329A), column oven (G1316A), thermostat (G1330B); column: Kromasil 100 C18, 250 mm×4 mm, 5 μm; column temperature: 30° C.; eluent A: water+5 ml of perchloric acid/liter, eluent B: acetonitrile; gradient: 0 min 90% A→7.0 min 52% A→18.0 min 52% A→20.0 min 10% A→21.0 min 10% A→23.0 min 90% A -4 26.0 min 90% A; flow rate: 2.0 ml/min; UV detection: 288 nm.
HPLC method for example 18:
Agilent 1100 with DAD (G1315A), binary pump (G1312A), autosampler (G1329A), column oven (G1316A), thermostat (G1330A); column: Kromasil 100 C18, 125 mm×4 mm, 5 μm; column temperature: 30° C.; eluent A: water+5 ml of perchloric acid/liter, eluent B: acetonitrile; gradient: 0 min 90% A→6.0 min 61% A→18.0 min 61% A→20.0 min 10% A→21.0 min 10% A→23.0 min 90% A→26.0 min 90% A; flow rate: 2.0 ml/min; UV detection: 294 nm.
The ratios of the peak areas (F) at the respective time points in relation to the peak areas at the starting time are shown in Table 3 for representative exemplary embodiments: […]

solubility at 24 h ([1]; aqueous buffer, dilute hydrochloric acid (pH 4)): > 500 µg/mL | solubility at 24 h ([1]; saline or isotonic, 5% strength aqueous dextrose solution): > 500 µg/mL | detectability of the test substance (prodrug) in plasma after i.v. administration [2]: no longer detectable | % test substance after 4 h [F(t = 4 h) × 100/F(t = 0 h)] ([3]; pH 4, 37° C.): 99% | % test substance after 24 h [F(t = 24 h) × 100/F(t = 0 h)] ([3]; pH 4, 37° C.): 98% | % test substance after 4 h [F(t = 4 h) × 100/F(t = 0 h)] ([3]; pH 7.4, 37° C.): 90% | % test substance after 24 h [F(t = 24 h) × 100/F(t = 0 h)] ([3]; pH 7.4, 37° C.): 53%
Compound: C[C@H](N)C(=O)OC[C@H](COc1ccc(-c2c(C#N)c(N)nc(SCc3coc(-c4ccc(Cl)cc4)n3)c2C#N)cc1)OC(=O)[C@H](C)N [Example 1, (2S)-3-{4-[2-Amino-6-({[2-(4-chlorophenyl)-1,3-oxazol-4-yl]methyl}sulfanyl)-3,5-dicyanopyridin-4-yl]phenoxy}propane-1,2-diyl(2S,2′S)-bis(2-aminopropanoate)dihydrochloride]
